Laboratory results published in ChEMBL document CHEMBL1159217, “Anti-inflammatory activity of saikosaponins from Heteromorpha trifoliata” (1995).

Legend:
Format in all cases: functional
Mus musculus [1] = assay: Antiinflammatory activity in Swiss mouse assessed as inhibition of serotonin-induced ear edema at 50 mg/kg, sc in presence of progesterone administered 1 hr prior to compound treatment; conditions: route subcutaneous
Mus musculus [2] = assay: Antiinflammatory activity in Swiss mouse assessed as inhibition of carrageenan-induced ear edema at 100 mg/kg, po administered 1 hr prior to carrageenan challenge measured after 3 hrs
Mus musculus [3] = assay: Antiinflammatory activity in Swiss mouse assessed as inhibition of 12-O-tetradecanoylphorbol acetate-induced ear edema at 0.5 mg/ear administered tropically
Mus musculus [4] = assay: Antiinflammatory activity in Swiss mouse assessed as inhibition of serotonin-induced ear edema at 50 mg/kg, sc; conditions: route subcutaneous
Mus musculus [5] = assay: Antiinflammatory activity in Swiss mouse assessed as inhibition of serotonin-induced ear edema at 50 mg/kg, sc in presence of actinomycin D administered simultaneously and 1.5 hrs after compound treatment for 3 hrs; parameters: scale not given: the % may be the effect or the level left; conditions: route subcutaneous
Mus musculus [6] = assay: Antiinflammatory activity in Swiss mouse assessed as inhibition of serotonin-induced ear edema at 50 mg/kg, sc in presence of cycloheximide administered simultaneously and 1.5 hrs after compound treatment for 3 hrs; parameters: scale not given: the % may be the effect or the level left; conditions: route subcutaneous
Mus musculus [7] = assay: Antiinflammatory activity in Swiss mouse assessed as inhibition of ethylphenylpropiolate-induced ear edema at 0.5 mg/ear administered tropically 16 hrs prior to ethylphenylpropiolate challenge

Question: `CC(=O)[C@H]1CC[C@H]2[C@@H]3CCC4=CC(=O)CC[C@]4(C)[C@H]3CC[C@]12C` [PROGESTERONE] was tested. Which inhibition in vivo at 50 mg/kg (Mus musculus [1]) did it give?
Answer: 44%

Question: For `C[C@H]1O[C@@H](O[C@H]2CC[C@@]3(C)[C@@H](CC[C@]4(C)[C@@H]3C=C[C@]35OC[C@@]6(CCC(C)(C)C[C@H]63)[C@@H](O)C[C@]54C)[C@]2(C)CO)[C@H](O[C@@H]2O[C@H](CO)[C@@H](O)[C@H](O)[C@H]2O)[C@@H](O[C@@H]2O[C@H](CO)[C@@H](O)[C@H](O)[C@H]2O)[C@H]1O` [BUDDLEJASAPONIN IV], which inhibition in vivo at 100 mg/kg (Mus musculus [2]) is on record?
Answer: 23%

Question: What about the “inhibition (INH)” value (Mus musculus [3]) of the same compound?
Answer: 89%

Question: What about the inhibition in vivo at 50 mg/kg (Mus musculus [4]) of the same compound?
Answer: 48%

Question: And the Activity (Mus musculus [5])?
Answer: 14%

Question: What about the Activity (Mus musculus [6]) of the same compound?
Answer: 14%

Question: What about the “inhibition (INH)” value (Mus musculus [7]) of the same compound?
Answer: 59%

Question: With `COc1ccc2c(c1)c(CC(=O)O)c(C)n2C(=O)c1ccc(Cl)cc1` [INDOMETHACIN] as the compound, how does the “inhibition (INH)” value (Mus musculus [3]) read?
Answer: 89%

Question: Which results are given for `CO[C@@H]1C=C2[C@@H]3CC(C)(C)CC[C@]3(CO)[C@@H](O)C[C@@]2(C)[C@]2(C)CC[C@H]3[C@](C)(CO)[C@@H](O[C@@H]4O[C@H](C)[C@H](O)[C@H](O[C@@H]5O[C@H](CO)[C@@H](O)[C@H](O)[C@H]5O)[C@H]4O[C@@H]4O[C@H](CO)[C@@H](O)[C@H](O)[C@H]4O)CC[C@]3(C)[C@@H]12`?
Answer: inhibition in vivo at 100 mg/kg (Mus musculus [2]): 18%; inhibition (INH) (Mus musculus [3]): 87%

Question: `C[C@@H]1C[C@H]2[C@@H]3CCC4=CC(=O)C=C[C@]4(C)[C@@]3(F)[C@@H](O)C[C@]2(C)[C@@]1(O)C(=O)CO` [DEXAMETHASONE] was tested. Which “inhibition (INH)” value (Mus musculus [7]) did it give?
Answer: 82%
